Measurements: the NIST ThermoML archive (doi:10.1016/j.jct.2015.06.014)
Numbers after ± are expanded uncertainties.

Experiment: molar heat capacity at constant pressure
Conditions: Liquid, Large sample (1 g) DSC

FC(F)CC(F)(F)F [1,1,1,3,3-pentafluoropropane]
molar heat capacity at constant pressure [J/K/mol]
Conditions	1590 kPa	2520 kPa	3480 kPa	4530 kPa	5500 kPa
315.15 K	184.58 ± 7.1	184.05 ± 7.1	183.78 ± 7.1	182.98 ± 7.1	182.44 ± 7.1
320.15 K	185.79 ± 7.2	185.12 ± 7.1	184.72 ± 7.1	183.91 ± 7.1	183.24 ± 7.1
325.15 K	187.8 ± 7.2	186.73 ± 7.2	186.19 ± 7.2	185.39 ± 7.1	184.58 ± 7.1
330.15 K	191.02 ± 7.4	189.95 ± 7.4	189.01 ± 7.4	188.07 ± 7.2	187.13 ± 7.2
335.15 K	195.31 ± 7.5	194.37 ± 7.5	193.16 ± 7.5	191.82 ± 7.4	191.02 ± 7.4
340.15 K	200.13 ± 7.8	199.2 ± 7.6	197.85 ± 7.6	196.25 ± 7.6	195.44 ± 7.5
345.15 K	204.83 ± 7.9	204.02 ± 7.9	202.55 ± 7.8	200.94 ± 7.8	200.13 ± 7.8
350.15 K	209.52 ± 8	208.44 ± 8	207.1 ± 8	205.5 ± 7.9	204.56 ± 7.9
355.15 K	214.07 ± 8.3	212.73 ± 8.2	211.66 ± 8.2	210.05 ± 8.2	208.98 ± 8
360.15 K	219.3 ± 8.4	217.69 ± 8.4	216.76 ± 8.4	214.74 ± 8.3	213.67 ± 8.3
365.15 K	226.54 ± 8.7	224.26 ± 8.7	222.65 ± 8.6	220.51 ± 8.6	219.44 ± 8.4

FC(F)(F)CC(F)(F)F [1,1,1,3,3,3-hexafluoropropane]
molar heat capacity at constant pressure [J/K/mol]
Conditions	1480 kPa	2490 kPa	3540 kPa	4560 kPa	5410 kPa
315.15 K	195.67 ± 6.8	193.7 ± 6.8	192.48 ± 6.7	191.42 ± 6.7	190.05 ± 6.7
320.15 K	198.71 ± 7	196.59 ± 6.8	194.91 ± 6.8	193.7 ± 6.8	192.78 ± 6.7
325.15 K	202.06 ± 7.1	199.78 ± 7	197.95 ± 7	196.43 ± 6.8	195.67 ± 6.8
330.15 K	205.71 ± 7.1	203.28 ± 7.1	201.45 ± 7	199.78 ± 7	199.02 ± 7
335.15 K	209.36 ± 7.3	207.08 ± 7.3	205.1 ± 7.1	203.28 ± 7.1	202.21 ± 7.1
340.15 K	213.46 ± 7.4	210.73 ± 7.3	208.6 ± 7.3	206.77 ± 7.3	205.56 ± 7.1
345.15 K	218.02 ± 7.6	214.83 ± 7.4	212.25 ± 7.4	210.27 ± 7.3	208.9 ± 7.3
350.15 K	223.34 ± 7.8	219.24 ± 7.6	216.35 ± 7.6	214.07 ± 7.4	212.4 ± 7.4
355.15 K	–	224.56 ± 7.9	221.22 ± 7.8	218.33 ± 7.6	216.35 ± 7.6
360.15 K	–	231.1 ± 8.1	226.84 ± 7.9	223.5 ± 7.8	221.06 ± 7.8
365.15 K	–	239.92 ± 8.4	233.53 ± 8.2	230.49 ± 8.1	227.45 ± 7.9
